Data reported in patent US20070078263A1, “BIARYL SUBSTITUTED HETEROCYCLE INHIBITORS OF LTA4H FOR TREATING INFLAMMATION” (deCODE Chemistry, Inc., priority 2005, published 2007).
Where a name gives a salt, the structure may show the parent alone. Read-outs that look alike come from different tables or passages of the source.

What was measured:
human whole blood = assay: Ex vivo assay testing inhibitory activity in human whole blood after stimulation with calcium ionophore (LTB4 ELISA); assay type: cell-based; details: Ionomycin 20 μM, read-out: hWBIC50;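 note: heparinized human blood preincubated 15 min at 37 °C with compound, then ionomycin-stimulated for 30 min, LTB4 in plasma supernatant quantified by ELISA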
Procedure: (2) Ex vivo assay testing inhibitory activity in human whole blood after stimulation with calcium ionophor.
Human blood was collected in heparin-containing Vacutainer tubes. […] Then 4 μl of a series of compound dilutions (in DMSO) were added, followed by a 15 min incubation at 37° C. with gentle shaking. After that, blood samples were stimulated by adding Ionomycin (Calbiochem) to a final concentration of 20 μM. After another incubation at 37° C. for 30 min, samples were centrifuged for 5 min at 1800 g and 4° C. Supernatants were taken and LTB4 concentrations were determined using a commercially available enzyme-linked immunosobentassay (R&D Systems, Minneapolis, Minn.) according to the manufacturer's instructions.

human LTA4 hydrolase = biological target: T1, human LTA4 hydrolase (Homo sapiens, UniProt P09960); assay: In vitro assay testing inhibitory activity against purified recombinant human LTA4 hydrolase (LTB4 formed, LC-MS/MS); assay type: biochemical;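 note: 200 nM enzyme preincubated 10 min at room temperature with serial inhibitor dilutions in pH 8.0 Tris buffer with BSA and 10% DMSO, then 2 µM LTA4 added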
T1 construct: A human LTA4 hydrolase full-length cDNA clone (NM 000895) was purchased; His tag (6xHis of vector pDEST17); made in house; host or cells: Escherichia coli BL21-AI
T1 sequence (P09960 1-611): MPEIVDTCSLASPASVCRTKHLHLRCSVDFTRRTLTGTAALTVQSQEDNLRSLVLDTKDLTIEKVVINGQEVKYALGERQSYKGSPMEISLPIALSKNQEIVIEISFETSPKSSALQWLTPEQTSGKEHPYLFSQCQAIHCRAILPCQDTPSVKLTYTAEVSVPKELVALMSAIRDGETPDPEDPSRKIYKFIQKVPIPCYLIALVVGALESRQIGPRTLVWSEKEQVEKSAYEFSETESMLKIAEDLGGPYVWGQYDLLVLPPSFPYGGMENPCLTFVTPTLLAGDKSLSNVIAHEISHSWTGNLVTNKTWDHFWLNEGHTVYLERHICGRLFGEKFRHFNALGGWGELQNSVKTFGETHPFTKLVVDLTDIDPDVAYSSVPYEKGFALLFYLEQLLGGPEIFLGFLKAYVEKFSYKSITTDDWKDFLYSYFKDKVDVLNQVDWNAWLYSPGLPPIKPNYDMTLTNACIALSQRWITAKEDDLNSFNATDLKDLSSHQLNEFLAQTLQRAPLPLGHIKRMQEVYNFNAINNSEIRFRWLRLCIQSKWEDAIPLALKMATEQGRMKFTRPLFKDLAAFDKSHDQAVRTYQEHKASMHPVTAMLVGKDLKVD
Source text: (1) In vitro assay testing inhibitory activity against purified recombinant human LTA4 hydroase. […] The gene was amplified by polymerase chain reaction and transferred via pDONR201 into the bacterial expression vector pDEST17 by recombination (both plasmids from Invitrogen, Carlsbad, Calif.). The resulting construct was transformed into Escherichia coli BL21-AI (Invitrogen), and expression was induced by chemical induction with arabinose. The recombinant enzyme was purified by chromatography on an FPLC system (Amersham Biosciences, Uppsala, Sweden) using immobilized metal affinity chromatography (Ni-NTA Superflow, Qiagen, Hilden, Germany) and anion exchange chromatography (MonoQ HR 10/10, Amersham Biosciences).
The compounds of the invention were incubated in a series of dilutions with 200 nM of recombinant enzyme in assay buffer (100 mM Tris-HCl, 100 mM NaCl, 5 mg/ml fatty-acid free BSA, 10% DMSO, pH 8.0) for 10 min at room temperature to allow binding between LTA4 hydrolase and the inhibitors. LTA4 was prepared by alkaline hydrolysis of LTA4 methyl ester (Biomol, Plymouth Meeting, Pa., or Cayman Chemicals, Ann Arbor, Mich.). A solution of 10 μg of the ester was dried under a nitrogen stream and redissolved in 60 μl of a solution of 80% acetone and 20% 0.25 M NaOH. After incubation for 40 min at room temperature the resulting approximately 500 μM tock of LTA4 was kept at −80° C. for no more than a few days prior to use.
Immediately before the assay, LTA4 was diluted to a concentration of 10 μM in assay buffer (without DMSO) and added to the reaction mixture to a final concentration of 2 μM to initiate the enzyme reaction. […] The samples were then kept at 4° C. overnight to complete protein precipitation and centrifuged for 15 min at 1800 g.

[1] = recombinant human LTA4 hydrolase 200 nM, LTA4 2 μM, read-out: AvgIC50

Structure (SMILES)	IC50 (human whole blood) [µM]	IC50 (human LTA4 hydrolase; [1]) [µM]	IC50 (human LTA4 hydrolase) [µM]
c1ccc(COc2ccc(OC[C@H]3CCCN3)cc2)cc1 [Example 90, (R)-2-(4-Benzyloxy-phenoxymethyl)-pyrrolidine hydrogen chloride salt]	< 5	< 5	
c1ccc(Cc2ccc(OC[C@H]3CCCCN3)cc2)cc1 [Example 51, (R)-2-(4-Benzyl-phenoxymethyl)-piperidine hydrochloride]	< 5	< 5	
Clc1ccc(-c2ccc(Cc3ccc(OC[C@H]4CCCN4)cc3)cc2)s1 [Example 111, (R)-2-{4-[4-(5-chloro-thiophen-2-yl)-benzyl]-phenoxymethyl}-pyrrolidine hydrogen chloroide salt]	< 5	< 5	
Ic1ccc(Cc2ccc(OC[C@H]3CCCN3)cc2)cc1 [Example 106, (R)-2-[4-(4-Iodo-benzyl)-phenoxymethyl]-pyrrolidine Hydrogen chloride salt]	< 5	< 5	
O=C(O)CCCN1CCC[C@@H]1COc1ccc(Cc2ccc(-c3cccs3)cc2)cc1 [Example 113, 4-{(R)-2-[4-(4-Thiophen-2-yl-benzyl)-phenoxymethyl]-pyrrolidin-1-yl}-butyric acid hydrogen chloride salt]	< 5	< 5	
Brc1ccc(Cc2ccc(OC[C@H]3CCCN3)cc2)cc1 [Example 105, (R)-2-[4-(4-Bromo-benzyl)-phenoxymethyl]-pyrrolidine hydrogen chloride salt]	< 5	< 5	
c1ccc(-c2ccc(Oc3ccc(OC[C@@H]4CCCCN4)cc3)cc2)cc1 [Example 53, (S)-2-[4-(Biphenyl-4-yloxy)-phenoxymethyl]-piperidine hydrochloride]	< 5		< 5
c1ccc(Oc2ccc(NC[C@H]3CCCN3)cc2)cc1 [Example 42, (4-Phenoxy-phenyl)-(R)-1-pyrrolidin-2-ylmethyl-amine]	< 5	< 5	
c1ccc(CCc2ccc(OC[C@H]3CCCN3)cc2)cc1 [Example 135, (R)-2-(4-Phenethyl-phenoxymethyl)-pyrrolidine]	5 to 20	5 to 20	
O=C(O)CCCN1CCC[C@@H]1COc1ccc(Cc2ccc(-c3ccsc3)cc2)cc1 [Example 112, 4-{(R)-2-[4-(4-Thiophen-3-yl-benzyl)-phenoxymethyl]-pyrrolidin-1-yl}-butyric acid hydrogen chloride salt]	< 5	< 5	
c1ccc(Cc2ccc(OCC3CCCCN3)cc2)cc1 (racemic) [Example 73, (+/−)-2-[(4-Benzylphenoxy)methyl]-piperidine hydrochloride]	< 5	< 5	
c1ccc(-c2ccc(Oc3ccc(OC[C@H]4CCCCN4)cc3)cc2)cc1 [Example 54, (R)-2-[4-(Biphenyl-4-yloxy)-phenoxymethyl]-piperidine hydrochloride]	< 5		< 5
c1ccc(-c2ccc(Cc3ccc(OC[C@H]4CCCN4)cc3)s2)cc1 [Example 159, (R)-2-[4-(5-Phenyl-thiophen-2-ylmethyl)-phenoxymethyl]-pyrrolidine hydrochloride salt]	< 5	< 5	
Clc1ccc(Cc2ccc(OC[C@@H]3CCCN3)cc2)cc1 [Example 64, (S)-2-[4-(4-Chloro-benzyl)-phenoxymethyl]-pyrrolidine hydrochloride]	< 5	< 5	
c1ccc(Oc2ccc(OCC3CCCCN3)cc2)cc1 (racemic) [Example 74, (+/−)-2-[(4-phenoxyphenoxy)methyl]-piperidine hydrochloride]	< 5	< 5	

More lines, main results first:

IC50 (human whole blood) [µM]	IC50 (human LTA4 hydrolase; [1]) [µM]	Structure (SMILES)	IC50 (human LTA4 hydrolase) [µM]
< 5	< 5	O=C(O)CCCN1CCC[C@H]1COc1ccc(Cc2ccccc2)cc1 [Example 3, 4-[(S)-2-(4-benzyl-phenoxymethyl)-pyrrolidin-1-yl]-butyric acid]	
< 5	< 5	Clc1ccc(Oc2ccc(OC[C@H]3CCCN3)cc2)cc1 [Example 13, (R)-2-[4-(4-Chloro-phenoxy)-phenoxymethyl]-pyrrolidine hydrochloride]	
< 5	< 5	O=C(O)CCCN1CCC[C@@H]1COc1ccc(Oc2ccc(C(F)(F)F)cc2)cc1 [Example 30, (R)-2-[4-(4-trifluoromethyl-phenoxy)-phenoxymethyl]-pyrrolidine-1-yl}butyric acid sodium salt]	
< 5	< 5	FC(F)(F)c1ccc(Oc2ccc(OC[C@H]3CCCCN3)cc2)cc1 [Example 55, (R)-2-[4-(4-Trifluoromethyl-phenoxy)-phenoxymethyl]-piperidine hydrochloride]	
< 5	< 5	Fc1ccc(Oc2ccc(OC[C@H]3CCCN3)cc2)cc1 [Example 49, (R)-2-[4-(4-Fluoro-phenoxy)-phenoxymethyl]-pyrrolidine]	
< 5	< 5	c1ccc2sc(Oc3ccc(OC[C@H]4CCCN4)cc3)nc2c1 [Example 100, (R)-2-[4-(Benzothiazol-2-yloxy)-phenoxymethyl]-pyrrolidine-Hydrogen chloride salt]	
< 5	< 5	O=C(O)CCCN1CCC[C@H]1COc1ccc(Cc2ccc(-c3ccsc3)cc2)cc1 [Example 169, 4-{(S)-2-[4-(4-Thiophen-3-yl-benzyl)-phenoxymethyl]-pyrrolidin-1-yl}-butyric acid sodium salt]	
< 5	< 5	O=C(O)CCCN1CCC[C@@H]1COc1ccc(Cc2ccccc2)cc1 [Example 10, 4-[(R)-2-(4-benzyl-phenoxymethyl)-pyrrolidin-1-yl]-butylic acid hydrochloride]	
< 5	< 5	c1ccc(Oc2ccc(OC[C@H]3CCCCN3)cc2)cc1 [Example 50, (R)-2-(4-Phenoxy-phenoxymethyl)-piperidine hydrochloride]	
< 5	< 5	COC(=O)CCCN1CCCC[C@H]1COc1ccc(Oc2ccc(Cl)cc2)cc1 [Example 60, 4-{(S)-2-[4-(4-Chloro-phenoxy)-phenoxymethyl]-piperidin-1-yl}-butyric acid methyl ester]	
< 5	< 5	O=C(O)CCCN1CCC[C@H]1COc1ccc(Cc2ccc(Cl)cc2)cc1 [Example 21, 4-{(S)-2-[4-(4-Chloro-benzyl)-phenoxymethyl]-pyrrolidin-1-yl}-butyric acid hydrochloride]	
< 5	< 5	c1ccc(Cc2ccc(OC[C@H]3CCCN3Cc3cccnc3)cc2)cc1 [Example 5, 3-[(R)-2-(4-benzyl-phenoxymethyl)-pyrrolidin-1-ylmethyl]-pyridine]	
< 5	< 5	Fc1ccc(Oc2ccc(OC[C@@H]3CCCCN3)cc2)cc1 [Example 57, (S)-2-[4-(4-Fluoro-phenoxy)-phenoxymethyl]-piperidine hydrochloride]	
5 to 20	< 5	O=C(O)CCC[N+]1([O-])CCC[C@H]1COc1ccc(Oc2ccc(Cl)cc2)cc1 (stereo partly drawn) [Example 70, 4-{(S)-2-[4-(4-Chloro-phenoxy)-phenoxymethyl]-1-hydroxy-pyrrolidin-1-yl}-butyric acid]	
< 5	< 5	O=C(O)CCN1CCC[C@@H]1COc1ccc(Cc2ccccc2)cc1 [Example 9, 3-[(R)-2-(4-benzyl-phenoxymethyl)-pyrrolidin-1-yl]-propionic acid hydrochloride]	
< 5	5 to 20	c1cc(-c2ccc(Oc3ccc(OC[C@H]4CCCN4)cc3)cc2)cs1 [Example 130, (R)-2-[4-(4-Thiophen-3-yl-phenoxy)-phenoxymethyl]-pyrrolidine-1-hydrogen chloride salt]	
< 5	5 to 20	c1cnn(-c2ccc(Oc3ccc(OC[C@H]4CCCN4)cc3)cc2)c1 [Example 133, 1-{4-[4-((R)-1-Pyrrolidin-2-ylmethoxy)-phenoxy]-phenyl}-1H-pyrazole, hydrogen chloride salt]	
< 5	< 5	c1cc(-c2ccc(Cc3ccc(OC[C@H]4CCCN4)cc3)cc2)co1 [Example 108, (R)-2-[4-(3-Furan-benzyl)-phenoxymethyl]-pyrrolidine hydrogen chloride salt]	
< 5	< 5	O=C(O)CCCN1CCC[C@@H]1COc1ccc(Oc2ccc(-c3cnco3)cc2)cc1 [Example 88, 4-{(R)-2-[4-(4-Oxazol-5-yl-phenoxy)-phenoxymethyl]-pyrrolidin-1-yl}-butyric acid]	
< 5	< 5	COC(=O)CCCN1CCC[C@@H]1COc1ccc(Cc2ccccc2)cc1 [Example 8, 4-[(R)-2-(4-benzyl-phenoxymethyl)-pyrrolidin-1-yl]-butyric acid methyl ester]	
5 to 20	< 5	Cc1ccc(-c2ccc(Cc3ccc(OC[C@H]4CCCN4)cc3)cc2)s1 [Example 110, (R)-2-{4-[4-(5-methyl-thiophen-2-yl)-benzyl]-phenoxymethyl}-pyrrolidine hydrogen chloroide salt]	
